Experimental data reported in ChEMBL document CHEMBL5625168, “Purine containing carbonucleoside phosphonate analogues as novel chemotype for Plasmodium falciparum Inhibition” (Eur J Med Chem, 2023).

Experiments:
Plasmodium falciparum = test: Antimalarial activity against Plasmodium falciparum 3D7 infected in RBC cells assessed as inhibition of parasite growth incubated for 48 hrs by [3H]hypoxanthine incorporation assay; type: functional, organism-based
[1] = biological target: T1, IMP-specific 5'-nucleotidase 1 (Plasmodium falciparum (isolate 3D7)) (UniProt A0A144A134); test: Binding affinity to recombinant Plasmodium falciparum 3D7 ISN1 assessed as change in melting temperature at 1 uM by differential scanning fluorimetry method
T1 sequence (whole entry): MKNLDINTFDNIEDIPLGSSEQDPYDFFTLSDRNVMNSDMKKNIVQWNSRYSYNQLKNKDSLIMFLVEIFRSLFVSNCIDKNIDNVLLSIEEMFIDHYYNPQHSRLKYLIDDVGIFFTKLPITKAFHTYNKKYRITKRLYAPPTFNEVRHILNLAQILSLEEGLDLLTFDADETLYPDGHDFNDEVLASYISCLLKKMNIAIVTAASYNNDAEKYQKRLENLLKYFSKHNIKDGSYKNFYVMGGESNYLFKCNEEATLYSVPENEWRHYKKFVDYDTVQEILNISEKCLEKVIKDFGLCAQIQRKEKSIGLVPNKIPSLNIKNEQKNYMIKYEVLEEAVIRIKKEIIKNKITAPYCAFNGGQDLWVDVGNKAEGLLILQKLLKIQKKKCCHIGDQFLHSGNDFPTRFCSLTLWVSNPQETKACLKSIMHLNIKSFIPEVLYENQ

[2] = biological target: T1, IMP-specific 5'-nucleotidase 1 (Plasmodium falciparum (isolate 3D7)); test: Binding affinity to recombinant Plasmodium falciparum 3D7 ISN1 assessed as change in melting temperature at 10 uM by differential scanning fluorimetry method
[3] = biological target: T1, IMP-specific 5'-nucleotidase 1 (Plasmodium falciparum (isolate 3D7)); test: Binding affinity to recombinant Plasmodium falciparum 3D7 ISN1 assessed as change in melting temperature at 100 uM by differential scanning fluorimetry method
[4] = biological target: T2, IMP-specific 5'-nucleotidase 1 (Plasmodium falciparum (isolate 3D7), UniProt A0A144A134); test: Binding affinity to recombinant Plasmodium falciparum 3D7 ISN1 assessed as dissociation constant by thermophoresis analysis
T2 sequence (A0A144A134 whole entry): T1 sequence (whole entry)

[5] = Plasmodium falciparum, 3D7, Erythrocyte

| Compound | IC50 (Plasmodium falciparum; [5]) [µM] | other results |
| --- | --- | --- |
| Nc1nc2c(ncn2[C@H]2CC[C@@](O)(CCP(=O)(O)O)C2)c(=O)[nH]1 (racemic) | 7 | – |
| Nc1ncnc2c1ncn2[C@@H]1CC(CP(=O)(O)O)=C[C@H]1O (racemic) | > 100 | – |
| O=P(O)(O)C[C@]1(O)CC[C@H](n2cnc3c(NCc4ccccc4)nc(NCc4ccccc4)nc32)C1 (racemic) | 41 | – |
| COc1nc(Cl)nc2c1ncn2[C@H]1CC[C@@](O)(CP(=O)(O)O)C1 (racemic) | > 100 | – |
| Nc1nc2c(ncn2[C@H]2CC[C@@](O)(/C=C/P(=O)(O)O)C2)c(=O)[nH]1 (racemic) | 50 | – |
| Nc1ncnc2c1ncn2[C@H]1CC[C@@](O)(CP(=O)(O)O)C1 | 14.7 | – |
| Nc1nc2c(ncn2[C@H]2CC[C@](O)(CP(=O)(O)O)C2)c(=O)[nH]1 | 42 | – |
| Nc1nc2c(ncn2[C@H]2C=C[C@@](O)(CP(=O)(O)O)C2)c(=O)[nH]1 (racemic) | 1 | ΔTm [1]: -0.9 °C; ΔTm [2]: 1.1 °C; ΔTm [3]: 4.1 °C; Kd [4]: 19.5 µM |
| Nc1nc(NCc2ccccc2)c2ncn([C@H]3CC[C@@](O)(CP(=O)(O)O)C3)c2n1 (racemic) | 79 | – |
| Nc1ncnc2c1ncn2[C@H]1CC[C@@](O)(/C=C/P(=O)(O)O)C1 (racemic) | > 100 | – |
| Nc1nc2c(ncn2[C@@H]2CC(CP(=O)(O)O)=C[C@H]2O)c(=O)[nH]1 (racemic) | > 100 | – |
| Nc1nc2c(ncn2[C@@H]2CC[C@](O)(CP(=O)(O)O)C2)c(=O)[nH]1 | 1.3 | – |
| Nc1nc2c(ncn2[C@H]2CC[C@@](O)(CP(=O)(O)O)C2)c(=O)[nH]1 (racemic) [listing 1 of 2 here] | – | Kd [4]: 24.1 µM; IC50 (Plasmodium falciparum; rbc): 4.4 µM |
| Nc1nc2c(ncn2[C@@H]2CC[C@@](O)(CP(=O)(O)O)C2)c(=O)[nH]1 | > 100 | – |
| Nc1nc(N)c2ncn([C@H]3CC[C@@](O)(CP(=O)(O)O)C3)c2n1 (racemic) | 8.8 | – |
| O=P(O)(O)C[C@]1(O)CC[C@H](n2cnc3c(NCc4ccccc4)nc(Cl)nc32)C1 (racemic) | 68.3 | – |
| COC1NC(N)=Nc2c1ncn2[C@H]1CC[C@@](O)(CCP(=O)(O)O)C1 (mixture of isomers) | 10.2 | – |
| COc1nc(N)c2ncn([C@H]3CC[C@@](O)(CP(=O)(O)O)C3)c2n1 (racemic) | 2.2 | – |
| Nc1nc2c(ncn2[C@H]2CC[C@@](O)(CP(=O)(O)O)C2)c(=O)[nH]1 | – | IC50 (Plasmodium falciparum; rbc): 44 µM |
| Nc1nc2c(ncn2[C@H]2CC[C@@](O)(CP(=O)(O)O)C2)c(=O)[nH]1 (racemic) [listing 2 of 2 here] | – | ΔTm [1]: -2 °C; ΔTm [2]: -4.5 °C; ΔTm [3]: -5.2 °C |
